Test results taken from PubChem BioAssay (NCI).
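Following 48 hours of exposure in 96-well plates, responses at five concentrations were used to interpolate endpoints linearly. TGI: concentration producing complete growth inhibition.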

Tests used:
Experiment in all cases: NCI anticancer screen, dose series, 48 h
[1] = test system: M14 melanoma
[2] = test system: SF-268 CNS
[3] = test system: RPMI-8226 leukemia
[4] = test system: NCI-H226 lung
[5] = test system: CCRF-CEM leukemia
[6] = test system: UACC-257 melanoma
[7] = test system: SR leukemia
[8] = test system: 786-0 renal
[9] = test system: HCC-2998 colon
[10] = test system: SF-539 CNS

**Q.** For `N/C(=N\Nc1ccc(S(N)(=O)=O)cc1)c1cnccn1`, which TGI [1] is on record?
**A.** > 100 µM

**Q.** What about the TGI [2] of the same compound?
**A.** > 100 µM

**Q.** What about the TGI [3] of the same compound?
**A.** > 100 µM

**Q.** What about the TGI [4] of the same compound?
**A.** > 100 µM

**Q.** What about the TGI [5] of the same compound?
**A.** > 100 µM

**Q.** What about the TGI [6] of the same compound?
**A.** > 100 µM

**Q.** What about the TGI [7] of the same compound?
**A.** > 100 µM

**Q.** And the TGI [8]?
**A.** > 100 µM

**Q.** What about the TGI [9] of the same compound?
**A.** > 100 µM

**Q.** With `O=C1c2ccccc2-c2[nH]c3cn[nH]c(=O)c3c21` as the compound, how does the TGI [1] read?
**A.** > 100 µM

**Q.** What about the TGI [2] of the same compound?
**A.** > 100 µM

**Q.** And the TGI [3]?
**A.** > 100 µM

**Q.** What about the TGI [4] of the same compound?
**A.** > 100 µM

**Q.** What about the TGI [5] of the same compound?
**A.** > 100 µM

**Q.** And the TGI [6]?
**A.** > 100 µM

**Q.** And the TGI [7]?
**A.** > 100 µM

**Q.** And the TGI [8]?
**A.** > 100 µM

**Q.** And the TGI [10]?
**A.** > 100 µM

**Q.** `Cn1c2ccccc2n2c3ncccc3c(=S)c(C#N)c12` was tested. Which TGI [1] did it give?
**A.** > 100 µM

**Q.** What about the TGI [2] of the same compound?
**A.** > 100 µM

**Q.** And the TGI [3]?
**A.** > 100 µM

**Q.** And the TGI [4]?
**A.** > 100 µM

**Q.** And the TGI [5]?
**A.** > 100 µM

**Q.** And the TGI [7]?
**A.** > 100 µM

**Q.** And the TGI [8]?
**A.** > 100 µM

**Q.** And the TGI [9]?
**A.** > 100 µM

**Q.** Which results are given for `N#Cc1nc(C#N)n(C(=O)c2ccccc2)c1NC(=O)c1ccccc1`?
**A.** TGI [1]: > 100 µM; TGI [2]: > 100 µM; TGI [3]: > 100 µM; TGI [4]: > 100 µM; TGI [5]: > 100 µM; TGI [6]: > 100 µM; TGI [8]: > 100 µM; TGI [10]: > 100 µM; TGI [9]: > 100 µM

**Q.** With `CCN(CC)c1nc(N(C)C)c2ccccc2n1` as the compound, how does the TGI [1] read?
**A.** 72.1 µM

**Q.** And the TGI [2]?
**A.** > 100 µM

**Q.** What about the TGI [3] of the same compound?
**A.** 40.6 µM

**Q.** And the TGI [4]?
**A.** 69.3 µM

**Q.** What about the TGI [6] of the same compound?
**A.** > 100 µM

**Q.** And the TGI [7]?
**A.** 27.5 µM

**Q.** What about the TGI [8] of the same compound?
**A.** > 100 µM

**Q.** What about the TGI [10] of the same compound?
**A.** 96.1 µM

**Q.** And the TGI [9]?
**A.** 38.3 µM

**Q.** For `CN1C(=O)C(O)CC1c1cccc(C(F)(F)F)c1` (stereo not given), which TGI [1] is on record?
**A.** > 100 µM

**Q.** And the TGI [2]?
**A.** > 100 µM

**Q.** And the TGI [3]?
**A.** > 100 µM

**Q.** And the TGI [4]?
**A.** > 100 µM

**Q.** What about the TGI [5] of the same compound?
**A.** > 100 µM

**Q.** What about the TGI [6] of the same compound?
**A.** > 100 µM

**Q.** What about the TGI [8] of the same compound?
**A.** > 100 µM

**Q.** What about the TGI [10] of the same compound?
**A.** > 100 µM

**Q.** And the TGI [9]?
**A.** > 100 µM

**Q.** `CCCNc1ncnc2[nH]ncc12` was tested. Which TGI [1] did it give?
**A.** > 100 µM

**Q.** And the TGI [2]?
**A.** > 100 µM

**Q.** And the TGI [3]?
**A.** > 100 µM

**Q.** And the TGI [5]?
**A.** > 100 µM

**Q.** What about the TGI [6] of the same compound?
**A.** > 100 µM

**Q.** And the TGI [7]?
**A.** > 100 µM

**Q.** What about the TGI [8] of the same compound?
**A.** > 100 µM

**Q.** What about the TGI [10] of the same compound?
**A.** > 100 µM

**Q.** What about the TGI [9] of the same compound?
**A.** > 100 µM

**Q.** Which TGI [1] does the source give for `CCOP(=O)(OCC)/C(C#N)=C/c1cccn1Cc1ccccc1` here?
**A.** > 100 µM

**Q.** What about the TGI [2] of the same compound?
**A.** > 100 µM

**Q.** And the TGI [4]?
**A.** 51.8 µM

**Q.** And the TGI [5]?
**A.** > 100 µM

**Q.** And the TGI [6]?
**A.** > 100 µM

**Q.** What about the TGI [7] of the same compound?
**A.** > 100 µM

**Q.** What about the TGI [8] of the same compound?
**A.** > 100 µM

**Q.** And the TGI [10]?
**A.** 36.1 µM

**Q.** And the TGI [9]?
**A.** > 100 µM

**Q.** What does the source list for `COC(=O)C1=C(O)C(C(=O)OC)[C@]2(O)[C@H](C(=O)OC)[C@H]1C[C@@H](c1ccc([N+](=O)[O-])cc1)[C@H]2C(=O)OC` (stereo not given in full)?
**A.** TGI [1]: 44.5 µM; TGI [2]: 51.6 µM; TGI [4]: 65.1 µM; TGI [5]: 67 µM; TGI [6]: > 100 µM; TGI [8]: 31 µM; TGI [10]: > 100 µM

**Q.** Which TGI [1] does the source give for `Cc1cc2c(c(=O)n1C)SCC2` here?
**A.** > 100 µM

**Q.** And the TGI [2]?
**A.** > 100 µM

**Q.** What about the TGI [3] of the same compound?
**A.** > 100 µM

**Q.** What about the TGI [4] of the same compound?
**A.** > 100 µM

**Q.** What about the TGI [5] of the same compound?
**A.** > 100 µM

**Q.** What about the TGI [6] of the same compound?
**A.** > 100 µM

**Q.** And the TGI [7]?
**A.** > 100 µM

**Q.** And the TGI [8]?
**A.** > 100 µM

**Q.** And the TGI [9]?
**A.** > 100 µM

**Q.** Which TGI [1] does the source give for `Nc1ncnc2c1ncn2Cc1cccc(CCl)c1` here?
**A.** 29.7 µM

**Q.** And the TGI [2]?
**A.** 32.4 µM

**Q.** What about the TGI [3] of the same compound?
**A.** 44.5 µM

**Q.** What about the TGI [4] of the same compound?
**A.** 33.4 µM

**Q.** And the TGI [6]?
**A.** 30.4 µM

**Q.** And the TGI [7]?
**A.** 46 µM

**Q.** And the TGI [8]?
**A.** 34.6 µM

**Q.** And the TGI [10]?
**A.** 33.4 µM
